# Laboratory results reported in patent US12590123B2, “Compounds and methods for treating cancer, viral infections, and allergic conditions” (Washington University, priority 2019, dated 2026).
# Biological target: T1, activated hepsin (Homo sapiens, UniProt P05981)
# T1 construct: purchased R&D Systems 4776-SE-010
# Assay: Fluorescent kinetic enzyme assay of hepsin activity (Boc-QAR-AMC)
# Format: biochemical
# Conditions: Table 2; read-out: Hepsin (IC50 nM)
# T1 sequence (P05981 163-417 limits assumed): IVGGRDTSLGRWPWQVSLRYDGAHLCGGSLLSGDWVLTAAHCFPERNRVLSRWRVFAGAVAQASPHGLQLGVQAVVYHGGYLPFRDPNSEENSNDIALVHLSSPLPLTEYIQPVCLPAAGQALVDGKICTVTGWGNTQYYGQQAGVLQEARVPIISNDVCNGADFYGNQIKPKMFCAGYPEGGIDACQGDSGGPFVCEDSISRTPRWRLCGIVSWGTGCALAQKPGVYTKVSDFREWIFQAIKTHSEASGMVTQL
# T1 sequence (P05981 1-162 partner limits assumed): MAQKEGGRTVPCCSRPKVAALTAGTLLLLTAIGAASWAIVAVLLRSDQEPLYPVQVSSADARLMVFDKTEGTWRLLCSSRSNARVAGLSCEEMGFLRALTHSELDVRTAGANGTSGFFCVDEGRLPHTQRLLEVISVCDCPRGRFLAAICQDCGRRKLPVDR
row,SMILES,IC50
1,"CC(=O)N[C@H]1Cc2ccc(cc2)OC/C=C\CNC(=O)C[C@@H](C(=O)N[C@@H](CCCNC(=N)N)C(=O)c2nc3ccccc3s2)NC(=O)[C@H](CC(C)C)NC1=O [VD4054, (10S,13S,16S,Z)-16-acetamido-N—((S)-1-(benzo[d]thiazol-2-yl)-5-guanidino-1-oxopentan-2-yl)-13-isobutyl-8,12,15-trioxo-2-oxa-7,11,14-triaza-1(1,4)-benzenacycloheptadecaphan-4-ene-10-carboxamide]",0.643 nM

# Same assay, conditions: Table 3; average of three experiments; read-out: Hepsin IC50
row,SMILES,IC50
1,"CC(C)C[C@H](NC(=O)OC1CCN(S(=O)(=O)c2ccc([N+](=O)[O-])cc2[N+](=O)[O-])CC1)C(=O)N[C@@H](CCCNC(=N)N)C(=O)c1nc2ccccc2s1 [Compound 8k, 1-((2,4-dinitrophenyl)sulfonyl)piperidin-4-yl ((S)-1-(((S)-1-(benzo[d]thiazol-2-yl)-5-guanidino-1-oxopentan-2-yl)amino)-4-methyl-1-oxopentan-2-yl)carbamate]",110 nM
2,"CC(=O)N1CCC(OC(=O)N[C@@H](CC(C)C)C(=O)N[C@@H](CCCNC(=N)N)C(=O)c2nc3ccccc3s2)CC1 [Compound 8e, 1-acetylpiperidin-4-yl ((S)-1-(((S)-1-(benzo[d]thiazol-2-yl)-5-guanidino-1-oxopentan-2-yl)amino)-4-methyl-1-oxopentan-2-yl)carbamate]",20 nM
3,"CC(C)C[C@H](NC(=O)OC1CCN(S(=O)(=O)c2cccc(F)c2)CC1)C(=O)N[C@@H](CCCNC(=N)N)C(=O)c1nc2ccccc2s1 [Compound 8j, 1-((3-fluorophenyl)sulfonyl)piperidin-4-yl ((S)-1-(((S)-1-(benzo[d]thiazol-2-yl)-5-guanidino-1-oxopentan-2-yl)amino)-4-methyl-1-oxopentan-2-yl)carbamate]",70 nM
4,"CC(C)C[C@H](NC(=O)OC1CCN(S(=O)(=O)c2ccccc2F)CC1)C(=O)N[C@@H](CCCNC(=N)N)C(=O)c1nc2ccccc2s1 [Compound 8g, 1-((2-fluorophenyl)sulfonyl)piperidin-4-yl ((S)-1-(((S)-1-(benzo[d]thiazol-2-yl)-5-guanidino-1-oxopentan-2-yl)amino)-4-methyl-1-oxopentan-2-yl)carbamate]",70 nM
5,"CCS(=O)(=O)N1CCC(OC(=O)N[C@@H](CC(C)C)C(=O)N[C@@H](CCCNC(=N)N)C(=O)c2nc3ccccc3s2)CC1 [Compound 8h, 1-(ethylsulfonyl)piperidin-4-yl ((S)-1-(((S)-1-(benzo[d]thiazol-2-yl)-5-guanidino-1-oxopentan-2-yl)amino)-4-methyl-1-oxopentan-2-yl)carbamate]",10 nM
6,"CC(C)C[C@H](NC(=O)OC1CCN(S(=O)(=O)c2ccccc2)CC1)C(=O)N[C@@H](CCCNC(=N)N)C(=O)c1nc2ccccc2s1 [Compound 8f, 1-(phenylsulfonyl)piperidin-4-yl ((S)-1-(((S)-1-(benzo[d]thiazol-2-yl)-5-guanidino-1-oxopentan-2-yl)amino)-4-methyl-1-oxopentan-2-yl)carbamate]",20 nM
7,"COc1ccc(Cl)cc1S(=O)(=O)N1CCC(OC(=O)N[C@@H](CC(C)C)C(=O)N[C@@H](CCCNC(=N)N)C(=O)c2nc3ccccc3s2)CC1 [Compound 8l, 1-((5-chloro-2-methoxyphenyl)sulfonyl)piperidin-4-yl ((S)-1-(((S)-1-(benzo[d]thiazol-2-yl)-5-guanidino-1-oxopentan-2-yl)amino)-4-methyl-1-oxopentan-2-yl)carbamate]",60 nM
8,"CC(C)C[C@H](NC(=O)OC1CCN(S(=O)(=O)c2ccc(Cl)cc2)CC1)C(=O)N[C@@H](CCCNC(=N)N)C(=O)c1nc2ccccc2s1 [Compound 8i, 1-((4-chlorophenyl)sulfonyl)piperidin-4-yl ((S)-1-(((S)-1-(benzo[d]thiazol-2-yl)-5-guanidino-1-oxopentan-2-yl)amino)-4-methyl-1-oxopentan-2-yl)carbamate]",60 nM
9,"Cc1cc(C)c(S(=O)(=O)N2CCC(OC(=O)N[C@@H](CC(C)C)C(=O)N[C@@H](CCCNC(=N)N)C(=O)c3nc4ccccc4s3)CC2)c(C)c1 [Compound 8m, 1-(mesitylsulfonyl)piperidin-4-yl ((S)-1-(((S)-1-(benzo[d]thiazol-2-yl)-5-guanidino-1-oxopentan-2-yl)amino)-4-methyl-1-oxopentan-2-yl)carbamate]",110 nM

# Biological target: T2, matriptase (Homo sapiens, UniProt Q9Y5Y6)
# T2 construct: purchased R&D Systems 3946-SE-010
# T2 sequence (Q9Y5Y6 615-855 limits assumed): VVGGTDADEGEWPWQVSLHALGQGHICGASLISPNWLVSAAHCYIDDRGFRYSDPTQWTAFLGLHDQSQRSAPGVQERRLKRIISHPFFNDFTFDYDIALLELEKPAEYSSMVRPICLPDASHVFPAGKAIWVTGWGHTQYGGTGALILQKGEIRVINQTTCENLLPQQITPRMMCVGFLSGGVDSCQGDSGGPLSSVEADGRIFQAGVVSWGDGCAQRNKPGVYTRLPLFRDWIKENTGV
# Assay: Fluorescent kinetic enzyme assay of matriptase activity (Boc-QAR-AMC)
# Format: biochemical
# Conditions: Table 2; read-out: Matriptase (IC50 nM)
row,SMILES,IC50
1,"CC(=O)N[C@H]1Cc2ccc(cc2)OC/C=C\CNC(=O)C[C@@H](C(=O)N[C@@H](CCCNC(=N)N)C(=O)c2nc3ccccc3s2)NC(=O)[C@H](CC(C)C)NC1=O [VD4054, (10S,13S,16S,Z)-16-acetamido-N—((S)-1-(benzo[d]thiazol-2-yl)-5-guanidino-1-oxopentan-2-yl)-13-isobutyl-8,12,15-trioxo-2-oxa-7,11,14-triaza-1(1,4)-benzenacycloheptadecaphan-4-ene-10-carboxamide]",72.6 nM
